Measured values reported in patent US10947210B2 (priority 2015, dated 2021).

Biological target: HCV RNA-dependent RNA polymerase (NS5B) (Hepatitis C virus genotype 1b (isolate BK) (HCV), UniProt P26663)
Experiment: RNA-Dependent RNA HCV NS5B (polymerase) Assay and IC50 Determination
Assay type: biochemical
Conditions: purified HCV NS5B polymerase, polyA:U16 substrate, 32P-UTP incorporation; read-out: IC50
Protocol: RNA-Dependent RNA HCV NS5B (polymerase) Assay and IC50 Determination.
The reaction mixtures consisted of 50 mM Hepes-KOH, pH 7.5, 5 mM MgCl2, 5 mM DTT, 2% glycerol, 0.01% Triton® X-100, 0.5 uM polyA:U16 substrate, purified HCV RNA-dependent RNA polymerase, 10 μM UTP, and ^32P-UTP (Perkin Elmer). The reaction mixtures incubated at 30° C. for 60 minutes, and then filtered through Zeta probe membrane (BioRad). The filter was washed with 5×SSC (75 mM sodium citrate, pH 7 and 750 mM NaCl), and the radiolabeled RNA products were quantitated by microbeta (Perkin Elmer). For IC50 determination, different concentrations of inhibitors were added to the polymerase reaction mixtures, and incubated at 37° C. for 60 minutes. IC50 values were determined using GraFit (Erithaus software).
Table 1 presents IC50 data obtained using the biochemical assay to test representative compounds. Data are presented as follows: “+++” means <0.1 μM; “++” means ≥0.1 μM but <1.0 μM; “+” means ≥1.0 μM.

Sequence of HCV RNA-dependent RNA polymerase (NS5B) (P26663 2420-3010): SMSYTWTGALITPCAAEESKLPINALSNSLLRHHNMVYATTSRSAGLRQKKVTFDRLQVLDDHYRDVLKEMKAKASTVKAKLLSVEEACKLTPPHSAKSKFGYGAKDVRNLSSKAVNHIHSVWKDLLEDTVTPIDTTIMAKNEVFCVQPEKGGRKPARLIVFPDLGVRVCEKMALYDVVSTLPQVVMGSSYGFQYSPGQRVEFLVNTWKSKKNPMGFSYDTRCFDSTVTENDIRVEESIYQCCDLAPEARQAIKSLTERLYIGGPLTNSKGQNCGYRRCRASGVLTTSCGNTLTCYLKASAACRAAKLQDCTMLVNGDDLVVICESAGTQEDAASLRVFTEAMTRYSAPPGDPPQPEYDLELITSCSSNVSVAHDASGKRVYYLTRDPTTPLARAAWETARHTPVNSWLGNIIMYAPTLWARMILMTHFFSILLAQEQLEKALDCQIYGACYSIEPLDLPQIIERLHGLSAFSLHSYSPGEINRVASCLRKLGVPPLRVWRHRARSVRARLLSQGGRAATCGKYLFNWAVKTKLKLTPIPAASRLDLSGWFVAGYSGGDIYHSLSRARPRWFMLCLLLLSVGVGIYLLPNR

SMILES | IC50 [nM]
CNC(=O)c1c(-c2ccc(F)cc2)oc2cc(N(CCOCCOCCOCc3cccc(C(C)=O)c3)S(C)(=O)=O)c(C3CC3)cc12 [Compound 02-8B, 6-[(2-{2-[2-(3-Acetyl-benzyloxy)-ethoxy]-ethoxy}-ethyl)-methanesulfonyl-amino]-5-cyclopropyl-2-(4-fluoro-phenyl)-benzofuran-3-carboxylic Acid Methylamide] | > 1000
CNC(=O)c1c(-c2ccc(F)cc2)oc2cc(N(CCOCCOCCOCCOCCOCc3cccc(C(C)=O)c3)S(C)(=O)=O)c(C3CC3)cc12 [Compound 02-8D, 6-({2-[2-(2-{2-[2-(3-Acetyl-benzyloxy)-ethoxy]-ethoxy}-ethoxy)-ethoxy]-ethyl}-methanesulfonyl-amino)-5-cyclopropyl-2-(4-fluoro-phenyl)-benzofuran-3-carboxylic Acid Methylamide] | > 1000
CNC(=O)c1c(-c2ccc(F)cc2)oc2cc(N(CCOCCOCCOCCOCCOCCOCc3cccc(C(C)=O)c3)S(C)(=O)=O)c(C3CC3)cc12 [Compound 02-8E, 6-[(2-{2-[2-(2-{2-[2-(3-Acetyl-benzyloxy)-ethoxy]-ethoxy}-ethoxy)-ethoxy]-ethoxy}-ethyl)-methanesulfonyl-amino]-5-cyclopropyl-2-(4-fluoro-phenyl)-benzofuran-3-carboxylic Acid Methylamide] | > 1000
CNC(=O)c1c(-c2ccc(F)cc2)oc2cc(N(CCOCCOCc3ccc(C(C)=O)cc3)S(C)(=O)=O)c(C3CC3)cc12 [Compound 02-8F, 6-({2-[2-(4-Acetyl-benzyloxy)-ethoxy]-ethyl}-methanesulfonyl-amino)-5-cyclopropyl-2-(4-fluoro-phenyl)-benzofuran-3-carboxylic Acid Methylamide] | > 1000
CNC(=O)c1c(-c2ccc(F)cc2)oc2cc(N(CCOCCOCCOCCOCc3ccc(C(C)=O)cc3)S(C)(=O)=O)c(C3CC3)cc12 [Compound 02-8H, 6-{[2-(2-{2-[2-(4-Acetyl-benzyloxy)-ethoxy]-ethoxy}-ethoxy)-ethyl]-methanesulfonyl-amino}-5-cyclopropyl-2-(4-fluoro-phenyl)-benzofuran-3-carboxylic Acid Methylamide] | > 1000
CNC(=O)c1c(-c2ccc(F)cc2)oc2cc(N(CCOCCOCCOCCOCCOCc3ccc(C(C)=O)cc3)S(C)(=O)=O)c(C3CC3)cc12 [Compound 02-8I, 6-({2-[2-(2-{2-[2-(4-Acetyl-benzyloxy)-ethoxy]-ethoxy}-ethoxy)-ethoxy]-ethyl}-methanesulfonyl-amino)-5-cyclopropyl-2-(4-fluoro-phenyl)-benzofuran-3-carboxylic Acid Methylamide] | > 1000
CCOC(=O)/C(O)=C/C(=O)c1cccc(COCCOCCOCCOCCN(c2cc3oc(-c4ccc(F)cc4)c(C(=O)NC)c3cc2C2CC2)S(C)(=O)=O)c1 [Compound 02-9C, 4-[3-(2-{2-[2-(2-{[5-Cyclopropyl-2-(4-fluoro-phenyl)-3-methylcarbamoyl-benzofuran-6-yl]-methanesulfonyl-amino}-ethoxy)-ethoxy]-ethoxy}-ethoxymethyl)-phenyl]-2-hydroxy-4-oxo-but-2-enoic Acid Ethyl Ester] | > 1000
CCOC(=O)/C(O)=C/C(=O)c1ccc(COCCOCCOCCOCCN(c2cc3oc(-c4ccc(F)cc4)c(C(=O)NC)c3cc2C2CC2)S(C)(=O)=O)cc1 [Compound 02-9H, 4-[4-(2-{2-[2-(2-{[5-Cyclopropyl-2-(4-fluoro-phenyl)-3-methylcarbamoyl-benzofuran-6-yl]-methanesulfonyl-amino}-ethoxy)-ethoxy]-ethoxy}-ethoxymethyl)-phenyl]-2-hydroxy-4-oxo-but-2-enoic Acid Ethyl Ester] | > 1000
CNC(=O)c1c(-c2ccc(F)cc2)oc2cc(N(CCOCCOCCOCc3cccc(C(=O)/C=C(\O)C(=O)O)c3)S(C)(=O)=O)c(C3CC3)cc12 [Compound 02-10B, 4-(3-{2-[2-(2-{[5-Cyclopropyl-2-(4-fluoro-phenyl)-3-methylcarbamoyl-benzofuran-6-yl]-methanesulfonyl-amino}-ethoxy)-ethoxy]-ethoxymethyl}-phenyl)-2-hydroxy-4-oxo-but-2-enoic Acid] | > 1000
CNC(=O)c1c(-c2ccc(F)cc2)oc2cc(N(CCOCCOCCOCCOCc3cccc(C(=O)/C=C(\O)C(=O)O)c3)S(C)(=O)=O)c(C3CC3)cc12 [Compound 02-10C, 4-[3-(2-{2-[2-(2-{[5-Cyclopropyl-2-(4-fluoro-phenyl)-3-methylcarbamoyl-benzofuran-6-yl]-methanesulfonyl-amino}-ethoxy)-ethoxy]-ethoxy}-ethoxymethyl)-phenyl]-2-hydroxy-4-oxo-but-2-enoic Acid] | 100 to 1000
CNC(=O)c1c(-c2ccc(F)cc2)oc2cc(N(CCOCCOCCOCc3ccc(C(=O)/C=C(\O)C(=O)O)cc3)S(C)(=O)=O)c(C3CC3)cc12 [Compound 02-10G, 4-(4-{2-[2-(2-{[5-Cyclopropyl-2-(4-fluoro-phenyl)-3-methylcarbamoyl-benzofuran-6-yl]-methanesulfonyl-amino}-ethoxy)-ethoxy]-ethoxymethyl}-phenyl)-2-hydroxy-4-oxo-but-2-enoic Acid] | > 1000
CNC(=O)c1c(-c2ccc(F)cc2)oc2cc(N(CCOCCOCCOCCOCc3ccc(C(=O)/C=C(\O)C(=O)O)cc3)S(C)(=O)=O)c(C3CC3)cc12 [Compound 02-10H, 4-[4-(2-{2-[2-(2-{[5-Cyclopropyl-2-(4-fluoro-phenyl)-3-methylcarbamoyl-benzofuran-6-yl]-methanesulfonyl-amino}-ethoxy)-ethoxy]-ethoxy}-ethoxymethyl)-phenyl]-2-hydroxy-4-oxo-but-2-enoic Acid] | > 1000
CNC(=O)c1c(-c2ccc(F)cc2)oc2cc(N(CCOCCOCCOCCOCCOCc3ccc(C(=O)/C=C(\O)C(=O)O)cc3)S(C)(=O)=O)c(C3CC3)cc12 [Compound 02-10I, 4-{4-[2-(2-{2-[2-(2-{[5-Cyclopropyl-2-(4-fluoro-phenyl)-3-methylcarbamoyl-benzofuran-6-yl]-methanesulfonyl-amino}-ethoxy)-ethoxy]-ethoxy}-ethoxy)-ethoxymethyl]-phenyl}-2-hydroxy-4-oxo-but-2-enoic Acid] | > 1000
CNC(=O)c1c(-c2ccc(F)cc2)oc2cc(N(CCOCCOCCOCCOCCOCCOCc3ccc(C(=O)/C=C(\O)C(=O)O)cc3)S(C)(=O)=O)c(C3CC3)cc12 [Compound 02-10J, 4-(4-{2-[2-(2-{2-[2-(2-{[5-Cyclopropyl-2-(4-fluoro-phenyl)-3-methylcarbamoyl-benzofuran-6-yl]-methanesulfonyl-amino}-ethoxy)-ethoxy]-ethoxy}-ethoxy)-ethoxy]-ethoxymethyl}-phenyl)-2-hydroxy-4-oxo-but-2-enoic Acid] | > 1000
CNC(=O)c1c(-c2ccc(F)cc2)oc2cc(N(CCCOCCOCc3cccc(C(C)=O)c3)S(C)(=O)=O)c(C3CC3)cc12 [Compound 03-6A, 6-(N-(3-(2-((3-acetylbenzyl)-oxy)-ethoxy)-propyl)-methylsulfonamido)-5-cyclopropyl-2-(4-fluorophenyl)-N-methylbenzofuran-3-carboxamide] | > 1000
CNC(=O)c1c(-c2ccc(F)cc2)oc2cc(N(CCCOCCOCc3cccc(C(=O)/C=C(\O)C(=O)O)c3)S(C)(=O)=O)c(C3CC3)cc12 [Compound 03-8A, 4-{3-[2-(3-{[5-Cyclopropyl-2-(4-fluoro-phenyl)-3-methylcarbamoyl-benzofuran-6-yl]-methanesulfonyl-amino}-propoxy)-ethoxymethyl]-phenyl}-2-hydroxy-4-oxo-but-2-enoic Acid] | 100 to 1000
CNC(=O)c1c(-c2ccc(F)cc2)oc2cc(N(CCOCCOCCOCCN)S(C)(=O)=O)c(C3CC3)cc12 [Compound 04-10, 6-(N-(2-(2-(2-(2-Aminoethoxy)-ethoxy)-ethoxy)-ethyl)-methylsulfonamido)-5-cyclopropyl-2-(4-fluorophenyl)-N-methylbenzofuran-3-carboxamide] | > 1000
CNC(=O)c1c(-c2ccc(F)cc2)oc2cc(N(CCOCCOCCOCCOC)S(C)(=O)=O)c(C3CC3)cc12 [Compound 05-4A, 6-(N-(2,5,8,11-Tetraoxatridecan-13-yl)-methylsulfonamido)-5-cyclopropyl-2-(4-fluorophenyl)-N-methylbenzofuran-3-carboxamide] | > 1000
CCCCOCCOCCOCCN(c1cc2oc(-c3ccc(F)cc3)c(C(=O)NC)c2cc1C1CC1)S(C)(=O)=O [Compound 05-4B, 6-({2-[2-(2-Butoxy-ethoxy)-ethoxy]-ethyl}-methanesulfonyl-amino)-5-cyclopropyl-2-(4-fluoro-phenyl)-benzofuran-3-carboxylic Acid Methylamide] | > 1000
CNC(=O)c1c(-c2ccc(F)cc2)oc2cc(N(CCOCCOCc3ccccc3C(=O)OC)S(C)(=O)=O)c(C3CC3)cc12 [Compound 06-6A, 2-[2-(2-{[5-Cyclopropyl-2-(4-fluoro-phenyl)-3-methylcarbamoyl-benzofuran-6-yl]-methanesulfonyl-amino}-ethoxy)-ethoxymethyl]-benzoic Acid Methyl Ester] | 100 to 1000
CNC(=O)c1c(-c2ccc(F)cc2)oc2cc(N(CCOCCOCc3ccc(C(=O)OC)cc3)S(C)(=O)=O)c(C3CC3)cc12 [Compound 06-6B, 4-[2-(2-{[5-Cyclopropyl-2-(4-fluoro-phenyl)-3-methylcarbamoyl-benzofuran-6-yl]-methanesulfonyl-amino}-ethoxy)-ethoxymethyl]-benzoic Acid Methyl Ester] | > 1000
